Results published in patent US20250388597A1, “BIFUNCTIONAL PHOTOCROSSLINKING PROBES FOR COVALENT CAPTURE OF PROTEIN-NUCLEIC ACID COMPLEXES IN CELLS” (UNIVERSITY OF SOUTHERN CALIFORNIA, priority 2022, published 2025).
Entries after “also recorded” stand apart in the source; their conditions may differ.

Target: T1, NFAT1/DNA complex (Homo sapiens, UniProt Q13469)
T1 construct: human NFAT1 protein (residue 399-676, NFAT1-DBD)
T1 sequence (Q13469 399-676): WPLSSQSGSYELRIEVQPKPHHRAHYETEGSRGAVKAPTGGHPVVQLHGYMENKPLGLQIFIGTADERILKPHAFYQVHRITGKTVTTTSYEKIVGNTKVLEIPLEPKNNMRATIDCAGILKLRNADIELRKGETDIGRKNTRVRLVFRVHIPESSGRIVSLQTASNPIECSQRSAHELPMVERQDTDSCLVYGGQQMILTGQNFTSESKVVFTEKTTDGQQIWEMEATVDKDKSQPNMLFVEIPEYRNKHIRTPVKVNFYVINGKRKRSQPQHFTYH
Assay: In vitro photo-crosslinking of assembled NFAT1/DNA complex, denaturing SDS gel
Assay type: biochemical
Conditions: for formation of covalent NFAT1/DNA crosslinked complex stable under denaturing SDS-PAGE: probe + UV 365 nm, 2% SDS, boil 10 min
Description: The probe binding and UV crosslinking were carried out as described in FIG. 5G and FIG. 7. The crosslinked complexes (lane 3 and lane 6) were further treated with DTT (100 mM, heat 50 degree C. for 30 min). The reaction mixtures were run on SDS gel and visualized by FAM fluorescence for DNA (top) and by Coomassie blue stain for protein (bottom) as described in FIG. 7. FIG. 7 depicts denaturing SDS gel analysis of covalent capture of in vitro assembled MEF2/DNA and NFAT1/DNA complexes by the BFPX probe, SPB-AAD. […] The protein/DNA complexes are incubated at room temperature for 30 min, and treated with various combination of BFPX probe (SPB-AAD) and UV illumination as described in FIG. 5G. […] The reaction mixtures were added SDS loading dye (2% SDS), boil for 10 min, and run on SDS gel (Bio-Rad Any Kd gradient gel). The same gel was visualized by FAM fluorescence for DNA (top) and by Coomassie blue stain for protein (bottom). FIG. 8C depicts denaturing SDS gel analysis of covalent capture of in vitro assembled MEF2/DNA and NFAT1/DNA complexes by the BFPX probe, SPB-PEG3-AAD. […] The reaction mixtures were run on SDS gel and visualized by FAM fluorescence for DNA (top) and by Coomassie blue stain for protein (bottom) as described in FIG. 7. […] Typically protein and DNA are mixed to bind at room temperature for 30 min, followed by addition of BFPX probes for an additional 15 min and then UV illumination. In the case of FA treatment, the reaction time is 10 min at room temperature and then quenched by 250 mM glycine. […] The UV illumination (as indicated by a positive sign) was carried out using a LED Chip (21.4 mm×21.4 mm, 365-370 nm, 30 Watt, sample distance 2 cm, exposure time 2-15 min at 4 degree C., here the exposure time is 15 min). […] The small amount of single stranded DNA is due to incomplete annealing. The higher smearing bands are most likely non-specific protein complexes. Neither of these experimental imperfections affected the main conclusion of this experiment because the double stranded-DNA bands and the specific NFAT-DNA complex bands (the middle sharp bands) are well defined and can be monitored without the interference of the other bands. […] The gel was visualized by Cy5 fluorescence for DNA. FIG. 12E depicts further characterization of BFPX crosslinking of NFAT1/DNA complexes using different DNA substrates and staining techniques. Two unlabeled DNA substrates containing a core NFAT-binding site and different flanking bases and sequence lengths ([…] ID NO: 4), 21 mer, c2: [NT] ID NO: 5), 16 mer) were used to bind the NFAT1-DBD as described in FIG. 12C. […] The reactions were then analyzed by SDS PAGE under denaturing condition as described in FIG. 12D. Because the DNA is unlabeled, the gel was stained using either cyanine-based dye (SYBR Safe) or Coomassie Blue stain (CB). […] The different size of the NFAT-c1DNA complexes (lane 2) and NFAT-c2DNA complexes (lane 4) was resolved by loading reactions of lane 2 (2a, 2b and 2c) and lane 4 (4a, 4b and 4c) as triplicates side-by-side on the same gel (lower panel) using either SYBR and CB stain. FIG. 12F depicts time course of BFPX crosslinking of NFAT1/DNA complexes. […] The reactions at different time points were then analyzed on SDS gel as described in FIG. 12D. […] When the UV exposure time is longer than 5 min, a significant amount of crosslinked NFAT-DNA complex can be formed with UV illumination without SPB-AAD.

| Structure (SMILES) | low probe concentration at which a significant amount of crosslinked protein complex was observed (NFAT1/DNA, FIG. 7 lane 12, UV 365 nm) [µM] | UV illumination time at which crosslinked complex was visible (NFAT1/DNA, probe 100 μM) [s] | UV illumination time at which crosslinking reached plateau (NFAT1/DNA, probe 100 μM, plateau around 100 seconds and 5 min time points) | formation of covalent NFAT1/DNA crosslinked complex stable under denaturing SDS-PAGE |
| --- | --- | --- | --- | --- |
| C#CCCC1(CCNC(=O)CCCOc2c3occc3cc3ccc(=O)oc23)N=N1 [SPB-AAD, N-(2-(3-(but-3-yn-1-yl)-3H-diazirin-3-yl)ethyl)-4-((7-oxo-7H-furo[3,2-g]chromen-9-yl)oxy)butanamide] | 0.125 | 3 | around 100 seconds | dosage dependent crosslinking of NFAT1/DNA complexes; also recorded: formation of complexes that run as larger molecular species than both free protein and DNA; also recorded: NFAT was crosslinked to c1 DNA (lane 2) and c2 DNA (lane 4) in the presence of UV |
| C#CCCC1(CCNC(=O)CCOCCOCCOCCC(=O)NCCNC(=O)CCCOc2c3occc3cc3ccc(=O)oc23)N=N1 [SPB-PEG3-AAD] |  |  |  | highly efficient crosslinking |
| C#CCCC1(CCNC(=O)CCOCCOCCOCCOCCNC(=O)CCCOc2c3occc3cc3ccc(=O)oc23)N=N1 [SPB-PEG4-AAD, N-(2-(3-(but-3-yn-1-yl)-3H-diazirin-3-yl)ethyl)-1-(4-((7-oxo-7H-furo[3,2-g]chromen-9-yl)oxy)butanamido)-3,6,9,12-tetraoxapentadecan-15-amide] |  |  |  | dosage dependent crosslinking of NFAT1/DNA complexes |
